Measurements taken from BindingDB's records for doi:10.1016/j.bmcl.2013.02.084 (Astrazeneca, 2013).

Tests used:
[1] = target: 2-acylglycerol O-acyltransferase 2 (human) (UniProt Q3SYC2); assay: Inhibition of human recombinant MGAT2 expressed in insect cell membrane using 2-oleoyl-sn-glycerol and oleoyl coenzyme A as substrate after 40 mins by Ellmans assay based rapidfire LCMS analysis
[2] = target: 2-acylglycerol O-acyltransferase 1 (human) (UniProt Q96PD6); assay: Inhibition of human recombinant MGAT1 expressed in insect cell membrane using 2-oleyl-sn-glycerol and [14C]-oleyl-coenzyme A as substrate after 10 to 15 mins by liquid scintillation counting analysis
Sequence of 2-acylglycerol O-acyltransferase 1 (human) (Q96PD6 whole entry, looked up): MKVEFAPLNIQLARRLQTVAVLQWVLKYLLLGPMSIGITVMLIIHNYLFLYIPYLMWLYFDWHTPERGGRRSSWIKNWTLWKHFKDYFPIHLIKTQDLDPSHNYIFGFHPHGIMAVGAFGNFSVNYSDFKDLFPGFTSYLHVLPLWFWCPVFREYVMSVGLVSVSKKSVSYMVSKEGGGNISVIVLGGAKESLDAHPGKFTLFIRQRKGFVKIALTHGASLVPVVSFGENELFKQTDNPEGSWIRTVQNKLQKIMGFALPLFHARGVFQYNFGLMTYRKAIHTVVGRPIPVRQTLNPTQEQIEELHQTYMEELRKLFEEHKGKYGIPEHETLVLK

[3] = target: 2-acylglycerol O-acyltransferase 2 (mouse); assay: Inhibition of mouse recombinant MGAT2 expressed in insect cell membrane using 2-oleoyl-sn-glycerol and oleoyl coenzyme A as substrate after 40 mins by Ellmans assay based rapidfire LCMS analysis
[4] = Inhibition of human recombinant MGAT3 expressed in insect cell membrane using 2-oleyl-sn-glycerol and [14C]-oleyl-coenzyme A as substrate after 10 to 15 mins by liquid scintillation counting analysis

Sequence of 2-acylglycerol O-acyltransferase 2 (human) (Q3SYC2 whole entry, looked up): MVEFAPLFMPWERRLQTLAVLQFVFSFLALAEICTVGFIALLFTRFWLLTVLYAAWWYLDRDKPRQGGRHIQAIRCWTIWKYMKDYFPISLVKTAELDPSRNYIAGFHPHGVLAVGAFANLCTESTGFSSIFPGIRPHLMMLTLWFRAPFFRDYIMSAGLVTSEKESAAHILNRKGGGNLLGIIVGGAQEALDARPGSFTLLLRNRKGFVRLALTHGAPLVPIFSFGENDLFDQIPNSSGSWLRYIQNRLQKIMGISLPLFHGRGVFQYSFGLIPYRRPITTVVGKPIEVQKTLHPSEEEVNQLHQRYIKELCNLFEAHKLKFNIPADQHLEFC

Row | IC50 [1] | SMILES | other results
1 | 2 µM | CCC1(C)NC(=O)c2cc(S(=O)(=O)Nc3cccc(Cl)c3)ccc2NC1=O (stereo unspecified) | –
2 | 0.063 µM | CCC1(C)NC(=O)c2cc(S(=O)(=O)Nc3ccccc3Cl)ccc2NC1=O (stereo unspecified) | IC50 [2]: 0.158 µM
3 | 0.05 µM | CCCC1(C)NC(=O)c2cc(S(=O)(=O)Nc3ccc(F)cc3F)ccc2NC1=O (stereo unspecified) | –
4 | 0.079 µM | O=C1NC2(CCC2)C(=O)Nc2ccc(S(=O)(=O)Nc3ccc(Cl)cc3)cc21 | –
5 | > 100 µM | CCC1(C)NC(=O)c2cc(NS(=O)(=O)c3ccccc3)ccc2NC1=O (stereo unspecified) | –
6 | 0.025 µM | CCC1(C)NC(=O)c2cc(S(=O)(=O)Nc3ccc(Cl)cc3)ccc2NC1=O (stereo unspecified) | IC50 [3]: 0.004 µM; IC50 [4]: 0.398 µM; IC50 [2]: 0.05 µM
7 | 0.316 µM | CCC1(CC)CNc2ccc(S(=O)(=O)Nc3ccc(F)cc3F)cc2CN1 | –
8 | 0.0032 µM | CCC1(CC)NC(=O)c2cc(S(=O)(=O)Nc3ccc(F)cc3F)ccc2NC1=O | –
9 | 7.94 µM | CCC1(C)NC(=O)c2cc(S(=O)(=O)NCc3ccccc3)ccc2NC1=O (stereo unspecified) | –
10 | 5.01 µM | CCC1(C)NC(=O)c2cc(S(=O)(=O)NC3CCCCC3)ccc2NC1=O (stereo unspecified) | –
11 | > 100 µM | CCC1(C)NC(=O)c2cc(S(=O)(=O)N(C)c3ccccc3)ccc2NC1=O (stereo unspecified) | –
12 | – | CCC1(C)NC(=O)c2cc(S(=O)(=O)Nc3ccc(OC)cc3)ccc2NC1=O (stereo unspecified) | IC50 [2]: 0.032 µM
13 | 2 µM | CC1(C)COc2ccc(S(=O)(=O)Nc3ccc(Cl)cc3)cc2C(=O)N1 | –
14 | 5.01 µM | CCC1NC(=O)c2cc(S(=O)(=O)Nc3ccccc3)ccc2NC1=O (stereo unspecified) | –
15 | 7.94 µM | CCC1(C)C(=O)Nc2ccc(S(=O)(=O)Nc3ccc(F)cc3F)cc2C(=O)N1C (stereo unspecified) | IC50 [3]: 0.631 µM
16 | – | CCC1(C)NC(=O)c2cc(S(=O)(=O)Nc3ccccc3)ccc2NC1=O (stereo unspecified) | IC50 [2]: 0.501 µM
17 | 0.0016 µM | CCC1(CC)CNc2ccc(S(=O)(=O)Nc3ccc(F)cc3F)cc2C(=O)N1 | –
18 | 0.05 µM | O=C1NC2(CCCC2)C(=O)Nc2ccc(S(=O)(=O)Nc3ccc(Cl)cc3)cc21 | –
19 | – | CCC1(C)NC(=O)c2cc(S(=O)(=O)Nc3ccc(Cl)cc3)ccc2N(C)C1=O (stereo unspecified) | IC50 [2]: 0.398 µM
20 | 0.251 µM | CCC1(CC)NCc2cc(S(=O)(=O)Nc3ccc(F)cc3F)ccc2NC1=O | –
21 | > 100 µM | O=C(Nc1ccc(Cl)cc1)c1ccc2c(c1)C(=O)NC1(CCC1)C(=O)N2 | –
